Test results from US20050239758A1, “Hormone treatment of multiple sclerosis” (priority 2004, published 2005).

B1: myelin basic protein (protein, UniProt P02686 1-304, looked up)
Myelin basic protein: MGNHAGKRELNAEKASTNSETNRGESEKKRNLGELSRTTSEDNEVFGEADANQNNGTSSQDTAVTDSKRTADPKNAWQDAHPADPGSRPHLIRLFSRDAPGREDNTFKDRPSESDELQTIQEDSAATSESLDVMASQKRPSQRHGSKYLATASTMDHARHGFLPRHRDTGILDSIGRFFGGDRGAPKRGSGKDSHHPARTAHYGSLPQKSHGRTQDENPVVHFFKNIVTPRTPPPSQGKGRGLSLSRFSWGAEGQRPGFGYGGRASDYKSAHKGFKGVDAQGTLSKIFKLGGRDSRSGSPMARR

Tests used:
serum anti-estrogen IgG = test: Competition ELISA: absorption of serum anti-estrogen IgG with specific and non-specific antigens; type: binding, human; settings: for Percent inhibition of serum anti-estrogen IgG after absorption: absorption with 250 μg/mL antigen, NS = non-significant; for Inhibition of anti-estrogen binding to estrogen (IgG): antigen in liquid phase, range over the samples; for Absorption of serum IgG antibodies by antigen added to the liquid phase: competition ELISA, result in words
Experimental: (§1) Enzyme-linked immunosorbent assay (ELISA) was used for testing antibodies against estrogen and progesterone in the sera of patients with premenstrual asthma and with control subjects. Different rows of microtiter plates (Costar) were coated either with 100 μl of BSA concentration of 10 μg/mL or 100 μl of estrogen-BSA or progesterone-BSA optimal concentration of 10 μg/mL in 0.1 m carbonate-bicarbonate buffer (pH 9.5). Plates were incubated overnight at 4° C. and then washed three times with […] of Tris-buffered saline (TBS) containing 0.05% Tween 20, pH 7.4. […] Plates were washed with PBS-Tween 20 and then 100 μl of control or patient's serum was added to duplicate wells coated either with BSA alone or with estrogen or progesterone bound to BSA. […] Plates were incubated for 2 h (for IgG and IgM) and overnight (for IgE), and then washed four times with PBS-Tween 20. Alkaline-phosphatase-conjugated goat anti-human IgG, IgM or IgE F(ab′)2 fragment at optimal dilution of 1:700 (IgG); 1:500 (IgM) and 1:250 (IgE) was added to corresponding wells. The plates were then incubated for an additional 2 h at room temperature. After washing five times with TBS-Tween buffer, the enzyme reaction was started by adding 100 μl of para-nitrophenylphosphate in 0.1 mL of diethanolamine buffer (1 mg/ml) containing 1 mM MgCl2 and sodium azide, pH 9.8. The reaction was stopped 45 minutes later with 50 μl of 1 N NaOH. The optical density was read at 405 nm (OD405) with a microtiter reader. […] However, this non-specific O.D. was subtracted from wells coated with estrogen or progesterone bound to BSA.
(§2) For this, microtiter plates were coated with hormones and blocked by the addition of 2% BSA in PBST. 100 μl of serum diluent buffer was added to all wells. […] After a 60-minute incubation, 100 μl serum anti-estrogen or anti-progesterone was added to all wells. […] Results were calculated as a percentage of inhibition in antigen-antibody reaction.
(§3) To examine whether antibodies to estrogen or progesterone are specific or cross-reactive, competition ELISA was performed by adding specific and non-specific antigens in liquid phase and examined prevention of serum antibody binding to the antigen in solid phase. […] This cross-reaction between estrogen and progesterone antibodies may be due to structural similarities between these two hormones.

serum anti-estrogen IgE = test: Competition ELISA: absorption of serum anti-estrogen IgE with specific and non-specific antigens; type: binding, human; settings: for Percent inhibition of serum anti-estrogen IgE after absorption: absorption with 250 μg/mL antigen, NS = non-significant; for Inhibition of IgE anti-estrogen binding: antigen in liquid phase, range over the samples; for Absorption of serum IgE antibodies by antigen added to the liquid phase: competition ELISA, result in words
Experimental: as §1, §2, §3

[1] = system: multiple sclerosis symptoms; test: Clinical case: daily sublingual dilute progesterone in a patient with multiple sclerosis; type: in vivo, human
Experimental: An adult human presented with a diagnosis of multiple sclerosis (MS) from a group of neurologists specializing in MS. They had confirmed the diagnosis with magnetic resonance imaging (MRI) scans showing demylination of major nerves. They were evaluated for hormone allergy therapy by assessing their anti-hormone antibodies and found to have elevated levels of anti-progesterone IgG and IgM antibodies. They then received progesterone 1:10 sublingual treatment, daily. Within a month of their initial diagnosis, they rated their symptoms at a 10 on a scale of 1-10, with 10 representing the worst symptoms experienced. A year after diagnosis, but before beginning low dosage hormone therapy, they rated their symptoms at a 5. They then began receiving daily sublingual progesterone (1:10) treatment. They reported an immediate reduction of their symptoms to a 3 or 4. After over a year of therapy, they reported their symptoms to be generally about a 2 with days where they have been a 0 or 1. On one occasion, the subject ran out of drops and, therefore, temporarily discontinued therapy.

Row | Molecule | Percent inhibition of serum anti-estrogen IgG after absorption (serum anti-estrogen IgG; Sample 1) | Percent inhibition of serum anti-estrogen IgG after absorption (serum anti-estrogen IgG; Sample 2) | Percent inhibition of serum anti-estrogen IgG after absorption (serum anti-estrogen IgG; Sample 3) | Inhibition of anti-estrogen binding to estrogen (IgG) (serum anti-estrogen IgG) | Absorption of serum IgG antibodies by antigen added to the liquid phase (serum anti-estrogen IgG) | Percent inhibition of serum anti-estrogen IgE after absorption (serum anti-estrogen IgE; Sample 1) | Percent inhibition of serum anti-estrogen IgE after absorption (serum anti-estrogen IgE; Sample 2) | Percent inhibition of serum anti-estrogen IgE after absorption (serum anti-estrogen IgE; Sample 3) | Inhibition of IgE anti-estrogen binding (serum anti-estrogen IgE) | Absorption of serum IgE antibodies by antigen added to the liquid phase (serum anti-estrogen IgE) | Symptoms on temporary discontinuation of therapy ([1]; ran out of drops, over a period of several days until therapy restarted) | Self-rated symptoms, generally, after over a year of therapy ([1]; scale of 1-10, 10 = worst, progesterone 1:10 sublingual daily, rated 5 before therapy)
1 | Progesterone-BSA [Pn] | (52%) | (45%) | (41%) | 41-52% | significantly absorbed | (37%) | (41&) % | (43%) | 37-43% | significantly absorbed |  | 
2 | Estrogen-BSA | (67%) | (59%) | (52%) | 52-67% | significantly absorbed | (55%) | (54%) | (62%) | 54-62% | significantly absorbed |  | 
3 | CC(=O)[C@H]1CC[C@H]2[C@@H]3CCC4=CC(=O)CC[C@]4(C)[C@H]3CC[C@]12C [progesterone] |  |  |  |  |  |  |  |  |  |  | steadily worsened | ~2
4 | bovine serum albumin [BSA] |  |  |  |  | did not absorb |  |  |  |  | did not absorb |  | 
5 | B1 |  |  |  |  | did not absorb |  |  |  |  | did not absorb |  | 
